Patent US20230405151A1, “USE OF IRAK4 MODULATORS FOR GENE THERAPY” (Genzyme Corporation, priority 2022, published 2023)

Tests used:
[1] = target: T1, IRAK4 protein (Mus musculus, UniProt Q8R4K2); test: In vivo mouse AAV model: IRAK4 expression in PBMC immune cell types by flow cytometry; conditions: chow 100 mg/kg from 15 days prior to AAV; day 14; N=6
T1 construct: from tissue; host or cells: PBMCs from blood of C57BL/6J mice
T1 sequence (Q8R4K2 1-459): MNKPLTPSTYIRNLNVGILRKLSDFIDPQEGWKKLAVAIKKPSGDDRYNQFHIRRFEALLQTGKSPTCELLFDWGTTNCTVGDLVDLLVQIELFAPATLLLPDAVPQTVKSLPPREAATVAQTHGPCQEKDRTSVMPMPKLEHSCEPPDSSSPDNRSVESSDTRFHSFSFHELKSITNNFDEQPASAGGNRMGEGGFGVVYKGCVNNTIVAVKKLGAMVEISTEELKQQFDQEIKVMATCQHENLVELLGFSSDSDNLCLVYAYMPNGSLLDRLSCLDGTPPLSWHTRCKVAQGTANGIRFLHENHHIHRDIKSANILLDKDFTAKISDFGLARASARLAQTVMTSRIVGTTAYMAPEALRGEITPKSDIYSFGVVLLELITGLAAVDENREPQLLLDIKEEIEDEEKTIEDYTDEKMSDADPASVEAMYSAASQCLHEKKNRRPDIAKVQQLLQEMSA
Description: The same experiment design was followed with n=6 mice in each group PBS group, AAV group and AAV+IRAK4 degrader PROTAC IRAK4 degrader-1 Cat. No.: HY-129966 (MedChemExpress) that was mixed with chow at 100 mg/kg and fed to mice 15 days prior to AAV injection. […] AAV capsid used in the study had LacZ transgene. All animal experiments were conducted in accordance with the Institutional Animal Care and Use Committees at Sanofi, Framingham. Submandibular bleeds were performed weekly, and necropsy was performed three weeks post AAV injection.
PBMC isolation and surface staining. 120 ul blood was collected in K2EDTA coated tubes. The blood was mixed with DBPS at 1:1 ration and pipetted into a separate tube containing Ficoll (GE17-5442-02) to ensure no mixing of the blood and Ficoll phases. The mixture was centrifuged at 2000 RPM for 25 minutes at room temperature (9 acceleration and no braking). The buffy coat containing the peripheral blood mononuclear cells (PBMCs) was collected, transferred to a new tube, and centrifuged for five minutes at 400 RCF. PBMCs were washed three times with phosphate buffered saline (PBS) containing 1% fetal bovine serum (FBS) or fetal calf serum (FCS) and counted. The PBMC cells thus obtained were stained with different antibodies to quantify percentage of different immune cell subsets in peripheral blood.
On day 14 mice were bled and PBMCs were harvested. […]

[2] = target: T2, IRAK4 protein (Homo sapiens, UniProt Q9NWZ3); test: AlphaLISA assay of IRAK4 protein levels in cell lysates; type: cell-based; conditions: 16 nM, 80 nM, 400 nM and 2000 nM; AAV.SAN024 MOI 1e5 24 hrs
T2 construct: endogenous in cells; host or cells: primary human monocyte-derived dendritic cells from PBMC donors
T2 sequence (Q9NWZ3 1-460): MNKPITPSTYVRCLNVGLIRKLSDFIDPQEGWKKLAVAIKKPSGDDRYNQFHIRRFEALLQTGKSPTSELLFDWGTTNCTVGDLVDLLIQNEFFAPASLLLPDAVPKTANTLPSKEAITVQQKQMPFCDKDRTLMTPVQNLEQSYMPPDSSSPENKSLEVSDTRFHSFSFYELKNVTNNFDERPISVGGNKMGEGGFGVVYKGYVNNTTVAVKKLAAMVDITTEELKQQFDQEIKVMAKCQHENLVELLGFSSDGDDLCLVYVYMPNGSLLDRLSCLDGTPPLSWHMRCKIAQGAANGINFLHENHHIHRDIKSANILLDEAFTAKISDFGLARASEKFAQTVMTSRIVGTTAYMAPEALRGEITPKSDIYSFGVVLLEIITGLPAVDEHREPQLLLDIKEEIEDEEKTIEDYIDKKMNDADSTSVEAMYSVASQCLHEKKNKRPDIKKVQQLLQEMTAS
Description: AlphaLISA assay. This assay was performed to measure the levels of IRAK4 protein in the cells. The protocol was followed as per manufacturer's recommendation Perkin Elmer (Catalog #AL3117C). Briefly, cells were lysed and 5 μL of lysates were added to Anti-IRAK4 Acceptor Beads and incubated for 30 min at 23° C., then Biotinylated Anti-IRAK4 Antibody was added and incubated for 60 min at 23° C. Finally, SA-donor beads are added and 30 min later plates are read using EnVision-Alpha Reader (615 nm) https://resources.perkinelmer.com/lab-solutions/resources/docs/MAN_AlphaLISA_IRAK4_AL3117.pdf?_gl=1*7jzf5d*_ga*MzQ4MTQ1NzA3LjE2NDY2NzY5MjI.*_ga_W34ZJ1Z1Q1*MTY3NzE5MjAyOS4zLjEuMTY3NzE5MjA2Mi4yNy4wLjA.&_ga=2.178521252.1409175695.1677192029-348145707.1646676922. The same protocol was used to measure phosphorylation levels of NFkB using AlphaLISA SureFire Ultra p-NFκB (Ser536) Assay Kit—High Volume Catalog #ALSU-PNFKB-A-HV.
To determine the activity of PROTAC degrader, human monocytic dendritic cells were treated with different doses of drugs as indicated (16 nM, 80 nM, 400 nM and 2000 nM) and the same cells were infected with AAV.SAN024 at MOI of 1e5 for 24 hrs. Cell lysates were analysed for IRAK4 degradation. No significant difference was observed between the control (untretaed/uninfected) cells as compared to the treated and AAV. SAN024 infected cells but the AAV.

SMILES: O=C1CCC(N2C(=O)c3cccc(NCc4cn(CCCNC(=O)c5ccc(-n6cc(NC(=O)c7coc(-c8ccnc(NCC9CC9)c8)n7)c(C(F)(F)F)n6)cc5)cn4)c3C2=O)C(=O)N1 (centres unmarked) [PROTAC IRAK4 degrader-1]
- IRAK4 protein expression in all immune cell types evaluated in PBMCs (PBMCs, T cells, B cells, monocytes) [1]: reduced significantly
- IRAK4 levels (IRAK4 degradation) in cell lysates [2]: reduction of IRAK4 levels at all doses
